Laboratory results from patent US6426355B1, “Heterocyclic carboxamide-containing thiourea inhibitors of herpes viruses containing phenylenediamine group” (American Home Products, priority 1998, dated 2002).
Converted amounts (≈) assume the structure as drawn.

Experiments:
[1] = test system: HCMV recombinant mutant virus (RV145); experiment: HCMV microtiter plate assay (beta-glucuronidase reporter); assay type: cell-based, Human Cytomegalovirus; details: Human betaherpesvirus 5, Fibroblast, read-out: IC50 (ug/ml) HCMV
In short: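 Human foreskin fibroblasts were infected with RV145 in the presence of inhibitor. β-glucuronidase under a viral promoter served as the replication marker. At 96 h post-infection, lysates in pH 7.0 phosphate with Triton X-100/sarkosyl were assayed colorimetrically or fluorometrically, and IC50 was estimated from varying inhibitor amounts.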

HSV-1 = experiment: HSV Antiviral (ELISA) assay; assay type: cell-based; details: Human alphaherpesvirus 1, HSV-1 in Vero cells, read-out: IC50 (ug/ml) HSV
In short: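 Vero cells in DMEM/2% FBS pretreated with compound 30 min before HSV-1 infection (MOI 0.006), then ~24 h at 37 °C. Viral gD detected by ELISA with β-galactosidase secondary and 4-methylumbelliferyl-galactoside (ex 365/em 450 nm); IC50 from fluorescence versus untreated infected cells.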

VZV strain Ellen = experiment: VZV Antiviral (ELISA) assay; assay type: cell-based; details: for IC50: Human alphaherpesvirus 3, VZV strain Ellen in HFF cells, read-out: IC50 (ug/ml) VZV; for inhibition at 10 µg/mL: Human alphaherpesvirus 3, read-out: % inhibition 10 ug/ml VZV, at 10 ug/ml, VZV strain Ellen in HFF cells
In short: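 Antiviral IC50 is derived by comparing fluorescence with and without compound after a three-day culture of VZV-infected plus uninfected foreskin fibroblasts. Replication is quantified by ELISA against glycoprotein II, using a β-galactosidase secondary and methyl umbelliferyl-β-D-galactoside.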

## COc1c(Cl)cc(NC(=S)Nc2ccc(NC(=O)c3cccc(F)c3)cc2)cc1Cl [Example 922, N-{4-[3-(3,5-Dichloro-4-methoxy-phenyl)-thioureido]-phenyl}-3-fluoro-benzamide]
[1]
  IC50: 0.01 µg/mL (≈ 0.0215 µM)
HSV-1
  IC50: > 10 µg/mL
VZV strain Ellen
  IC50: 7 µg/mL (≈ 15.1 µM)
  inhibition at 10 µg/mL: 84%

## CC(=O)Nc1ccc(NC(=S)Nc2ccc(C)c(Cl)c2)cc1 [Example 939, N-{4-[3-(3-Chloro-4-methyl-phenyl)-thioureido]-phenyl} -acetamide]
[1]
  IC50: 0.018 µg/mL (≈ 0.0539 µM)
HSV-1
  IC50: > 10 µg/mL
VZV strain Ellen
  IC50: 15 µg/mL (≈ 44.9 µM)
  inhibition at 10 µg/mL: 53%

## O=C(Nc1ccc(NC(=S)Nc2ccc(C(F)(F)F)c(Cl)c2)cc1)c1csnn1 [Example 960, [1,2,3]Thiadiazole-4-carboxylic acid {4-[3-(3-chloro-4-trifluoromethyl-phenyl)-thioureido]-phenyl}-amide]
[1]
  IC50: 0.03 µg/mL (≈ 0.0655 µM)
HSV-1
  IC50: > 10 µg/mL
VZV strain Ellen
  IC50: > 10 µg/mL
  inhibition at 10 µg/mL: 58%

## O=C(Nc1ccc(NC(=S)Nc2ccc(C(F)(F)F)c(Cl)c2)cc1)c1ccccc1F [Example 961, N-{4-[3-(3-Chloro-4-trifluoromethyl-phenyl)-thioureido]-phenyl} -2-fluoro-benzamide]
[1]
  IC50: 0.006 µg/mL (≈ 0.0128 µM)
HSV-1
  IC50: > 10 µg/mL
VZV strain Ellen
  inhibition at 10 µg/mL: 20%

## O=C(Nc1ccc(NC(=S)Nc2ccc(Cl)c(Cl)c2)cc1)c1csnn1 [Example 964, [1,2,3]Thiadiazole-4-carboxylic acid {4-[3-(3,4-dichloro-phenyl)-thioureido]-phenyl}-amide]
[1]
  IC50: 0.03 µg/mL (≈ 0.0707 µM)
HSV-1
  IC50: > 10 µg/mL
VZV strain Ellen
  IC50: > 10 µg/mL
  inhibition at 10 µg/mL: 9%

## O=C(Nc1ccc(NC(=S)Nc2ccc(Br)c(Cl)c2)cc1)c1ccccc1F [Example 965, N-{4-[3-(4-Bromo-3-chloro-phenyl)-thioureido]-phenyl} -2-fluoro-benzamide]
[1]
  IC50: 0.008 µg/mL (≈ 0.0167 µM)
HSV-1
  IC50: > 10 µg/mL
VZV strain Ellen
  inhibition at 10 µg/mL: 36%

## O=C(Nc1ccc(NC(=S)Nc2ccc(I)c(Cl)c2)cc1)c1ccccc1F [Example 966, N-{4-[3-(3-Chloro-4-iodo-phenyl)-thioureido]-phenyl} -2-fluoro-benzamide]
[1]
  IC50: 0.02 µg/mL (≈ 0.038 µM)
HSV-1
  IC50: > 10 µg/mL
VZV strain Ellen
  inhibition at 10 µg/mL: 42%

## O=C(Nc1ccc(NC(=S)Nc2ccc(F)c(Cl)c2)cc1)c1ccco1 [Example 969, Furan-2-carboxylic acid {4-[3-(3-chloro-4-fluoro-phenyl)-thioureido]-phenyl}-amide]
[1]
  IC50: 0.03 µg/mL (≈ 0.077 µM)
HSV-1
  IC50: > 10 µg/mL
VZV strain Ellen
  IC50: > 10 µg/mL
  inhibition at 10 µg/mL: 40%

## O=C(Nc1ccc(NC(=S)Nc2ccc(Br)c(Cl)c2)cc1)c1csnn1 [Example 970, [1,2,3]Thiadiazole-4-carboxylic acid {4-[3-(4-bromo-3-chloro-phenyl)-thioureido]-phenyl}-amide]
[1]
  IC50: 0.06 µg/mL (≈ 0.128 µM)
HSV-1
  IC50: > 10 µg/mL
VZV strain Ellen
  IC50: > 10 µg/mL
  inhibition at 10 µg/mL: 16%

## O=C(Nc1ccc(NC(=S)Nc2ccc(I)c(Cl)c2)cc1)c1csnn1 [Example 971, [1,2,3]Thiadiazole-4-carboxylic acid {4-[3-(3-chloro-4-iodo-phenyl)-thioureido]-phenyl} -amide]
[1]
  IC50: 0.013 µg/mL (≈ 0.0252 µM)
HSV-1
  IC50: > 10 µg/mL
VZV strain Ellen
  IC50: > 10 µg/mL
  inhibition at 10 µg/mL: 9%

## O=C(Nc1ccc(NC(=S)Nc2ccc(F)c(Cl)c2)cc1)c1ccccc1F [Example 972, N-{4-[3-(3-Chloro-4-fluoro-phenyl)-thioureido]-phenyl} -2-fluoro-benzamide]
[1]
  IC50: 0.006 µg/mL (≈ 0.0144 µM)
HSV-1
  IC50: > 10 µg/mL
VZV strain Ellen
  IC50: > 15 µg/mL
  inhibition at 10 µg/mL: 95%

## O=C(Nc1ccc(NC(=S)Nc2cccc(Cl)c2Cl)cc1)c1csnn1 [Example 979, [1,2,3]Thiadiazole-4-carboxylic acid {4-[3-(2,3-dichloro-phenyl)-thioureido]-phenyl} -amide]
[1]
  IC50: 0.19 µg/mL (≈ 0.448 µM)
HSV-1
  IC50: 8 µg/mL (≈ 18.9 µM)
VZV strain Ellen
  IC50: 12 µg/mL (≈ 28.3 µM)
  inhibition at 10 µg/mL: 88%

## CC(=O)Nc1ccc(NC(=S)Nc2cc(Cl)ccc2Cl)cc1 [Example 980, N-{4-[3-(2,5-Dichloro-phenyl)-thioureido]-phenyl} -acetamide]
[1]
  IC50: 0.05 µg/mL (≈ 0.141 µM)
HSV-1
  IC50: > 10 µg/mL
VZV strain Ellen
  inhibition at 10 µg/mL: 56%

## CC(=O)Nc1ccc(NC(=S)Nc2cc(Cl)c(Cl)c(Cl)c2)cc1 [Example 986, N-{4-[3-(3,4,5-Trichloro-phenyl)-thioureido]-phenyl}-acetamide]
[1]
  IC50: 0.031 µg/mL (≈ 0.0798 µM)
HSV-1
  IC50: > 10 µg/mL
VZV strain Ellen
  inhibition at 10 µg/mL: 5%

## O=C(Nc1ccc(NC(=S)Nc2cc(Cl)c(Cl)c(Cl)c2)cc1)c1csnn1 [Example 989, [1,2,3]Thiadiazole-4-carboxylic acid {4-[3-(3,4,5-trichloro-phenyl)-thioureido]-phenyl}-amide]
[1]
  IC50: 0.016 µg/mL (≈ 0.0349 µM)
HSV-1
  IC50: > 10 µg/mL
VZV strain Ellen
  IC50: > 10 µg/mL
  inhibition at 10 µg/mL: 21%

## O=C(Nc1ccc(NC(=S)Nc2ccc(-c3cc[nH]n3)c(Cl)c2)cc1)c1csnn1 [Example 991, [1,2,3]Thiadiazole-4-carboxylic acid (4-{3-[3-chloro-4-(1H-pyrazol-3-yl)-phenyl]-thioureido}-phenyl)-amide]
[1]
  IC50: 0.022 µg/mL (≈ 0.0483 µM)
HSV-1
  IC50: > 10 µg/mL
VZV strain Ellen
  IC50: > 10 µg/mL
  inhibition at 10 µg/mL: 3%

## O=C(Nc1ccc(NC(=S)Nc2cccc(Cl)c2)cc1)c1csnn1 [Example 992, [1,2,3]Thiadiazole-4-carboxylic acid {4-[3-(3-chloro-phenyl)-thioureido]-phenyl}-amide]
[1]
  IC50: 0.018 µg/mL (≈ 0.0462 µM)
HSV-1
  IC50: > 10 µg/mL
VZV strain Ellen
  IC50: > 10 µg/mL
  inhibition at 10 µg/mL: 29%

## O=C(Nc1ccc(NC(=S)Nc2cccc(Cl)c2)cc1)c1ccco1 [Example 993, Furan-2-carboxylic acid {4-[3-(3-chloro-phenyl)-thioureido]-phenyl}-amide]
[1]
  IC50: 0.013 µg/mL (≈ 0.035 µM)
HSV-1
  IC50: > 10 µg/mL
VZV strain Ellen
  IC50: > 10 µg/mL

## O=C(Nc1ccc(NC(=S)Nc2cccc(Cl)c2)cc1)c1ccccc1F [Example 994, N-{4-[3-(3-Chloro-phenyl)-thioureido]-phenyl}-2-fluoro-benzamide]
[1]
  IC50: 0.07 µg/mL (≈ 0.175 µM)
HSV-1
  IC50: > 10 µg/mL
VZV strain Ellen
  IC50: > 10 µg/mL

## O=C(Nc1ccc(NC(=S)Nc2ccc(Cl)cc2)cc1)c1ccccc1F [Example 996, N-{4-[3-(4-Chloro-phenyl)-thioureido]-phenyl}-2-fluoro-benzamide]
[1]
  IC50: 0.15 µg/mL (≈ 0.375 µM)
HSV-1
  IC50: 10 µg/mL (≈ 25 µM)
VZV strain Ellen
  IC50: > 10 µg/mL

## NC(=O)c1cccc(NC(=S)Nc2ccc(NC(=O)c3ccco3)cc2)c1 [Example 1004, Furan-2-carboxylic acid {4-[3-(3-carbamoyl-phenyl)-thioureido]-phenyl} -amide]
[1]
  IC50: 0.5 µg/mL (≈ 1.31 µM)
HSV-1
  IC50: > 10 µg/mL
VZV strain Ellen
  IC50: > 10 µg/mL
  inhibition at 10 µg/mL: 36%

## NC(=O)c1cccc(NC(=S)Nc2ccc(NC(=O)c3csnn3)cc2)c1 [Example 1005, [1,2,3]Thiadiazole-4-carboxylic acid {4-[3-(3-carbamoyl-phenyl)-thioureido]-phenyl}-amide]
[1]
  IC50: 2 µg/mL (≈ 5.02 µM)
HSV-1
  IC50: > 10 µg/mL
VZV strain Ellen
  IC50: > 10 µg/mL
  inhibition at 10 µg/mL: 16%

## O=C(Nc1ccc(NC(=S)Nc2ccccc2Cl)cc1)c1csnn1 [Example 1006, [1,2,3]Thiadiazole-4-carboxylic acid {4-[3-(2-chloro-phenyl)-thioureido]-phenyl}-amide]
[1]
  IC50: 0.2 µg/mL (≈ 0.513 µM)
HSV-1
  IC50: > 10 µg/mL
VZV strain Ellen
  IC50: > 10 µg/mL
  inhibition at 10 µg/mL: 13%

## O=C(Nc1ccc(NC(=S)Nc2cccc(F)c2)cc1)c1ccco1 [Example 1007, Furan-2-carboxylic acid {4-[3-(3-fluoro-phenyl)-thioureido]-phenyl} -amide]
[1]
  IC50: 0.11 µg/mL (≈ 0.31 µM)
HSV-1
  IC50: > 10 µg/mL
VZV strain Ellen
  IC50: > 10 µg/mL
  inhibition at 10 µg/mL: 18%

## O=C(Nc1ccc(NC(=S)Nc2cccc([N+](=O)[O-])c2)cc1)c1ccco1 [Example 1008, Furan-2-carboxylic acid {4-[3-(3-nitro-phenyl)-thioureido]-phenyl} -amide]
[1]
  IC50: 0.12 µg/mL (≈ 0.314 µM)
HSV-1
  IC50: > 10 µg/mL
VZV strain Ellen
  IC50: > 10 µg/mL
  inhibition at 10 µg/mL: 15%

## O=C(Nc1ccc(NC(=S)Nc2cccc([N+](=O)[O-])c2)cc1)c1ccccc1F [Example 1009, 2-Fluoro-N-{4-[3-(3-nitro-phenyl)-thioureido]-phenyl} -benzamide]
[1]
  IC50: 0.2 µg/mL (≈ 0.487 µM)
HSV-1
  IC50: 10 µg/mL (≈ 24.4 µM)
VZV strain Ellen
  inhibition at 10 µg/mL: 22%

## O=C(Nc1ccc(NC(=S)Nc2cccc(OC(F)(F)F)c2)cc1)c1ccccc1F [Example 1011, 2-Fluoro-N-{4-[3-(3-trifluoromethoxy-phenyl)-thioureido]-phenyl} -benzamide]
[1]
  IC50: 0.039 µg/mL (≈ 0.0868 µM)
HSV-1
  IC50: > 10 µg/mL
VZV strain Ellen
  inhibition at 10 µg/mL: 20%

## O=C(Nc1ccc(NC(=S)Nc2cccc(S(=O)(=O)CCO)c2)cc1)c1ccco1 [Example 1018, Furan-2-carboxylic acid (4-{3-[3-(2-hydroxy-ethanesulfonyl)-phenyl]-thioureido} -phenyl)-amide]
[1]
  IC50: 0.4 µg/mL (≈ 0.898 µM)
HSV-1
  IC50: > 10 µg/mL
VZV strain Ellen
  IC50: > 10 µg/mL
  inhibition at 10 µg/mL: 2%

## O=C(Nc1ccc(NC(=S)Nc2cccc(S(=O)(=O)CCO)c2)cc1)c1ccccc1F [Example 1019, 2-Fluoro-N-(4-{3-[3-(2-hydroxy-ethanesulfonyl)-phenyl]-thioureido} -phenyl)-benzamide]
[1]
  IC50: 1.5 µg/mL (≈ 3.17 µM)
HSV-1
  IC50: > 10 µg/mL
VZV strain Ellen
  inhibition at 10 µg/mL: 2%
